This note sets out measurements from patent publication US7589095B2, “4-phenyl-pyrimidine-2-carbonitrile derivatives” (N.V. Organon, priority 2004, dated 2009).

Series [1] addresses T1, recombinant human Cathepsin K (Homo sapiens, UniProt P43235).
T1 sequence (P43235 115-329): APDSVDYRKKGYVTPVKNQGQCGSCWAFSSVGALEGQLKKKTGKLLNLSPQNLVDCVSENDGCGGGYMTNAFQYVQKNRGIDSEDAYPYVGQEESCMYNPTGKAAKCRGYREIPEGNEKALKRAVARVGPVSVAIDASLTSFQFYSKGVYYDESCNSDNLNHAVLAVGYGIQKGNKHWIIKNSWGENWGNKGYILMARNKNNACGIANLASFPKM
Description: Cathepsin K activity: inhibition of recombinant human Cathepsin K, fluorogenic substrate Z-Phe-Arg-AMC. The series is classed as biochemical. The following applies: pH5.5, fluorescence at 10 minutes, read-out: pIC50 (negative logarithm of the IC50 concentration) for inhibition of human cathepsin K (converted). How it is done: To a 384 well microtitre plate is added 5 μl of a 100 μM solution of test compound in assay buffer (100 mM sodium acetate pH5.5, 5 mM EDTA, 5 mM dithiothreitol) with 10% dimethylsulfoxide (DMSO), plus 10 μl of 100 μM solution of the substrate Z-Phe-Arg-AMC (Bachem; 7-amido-coumarine derivative of the dipeptide N-benzyloxycarbonyl-Phe-Arg-OH) in assay buffer and 25 μl of assay buffer. 10 μl of a 1 mg/l solution of activated recombinant human cathepsin K, in assay buffer, is then added to the well, yielding a final inhibitor concentration of 10 μM.
Enzyme activity is determined by measuring the fluorescence of the liberated aminomethylcoumarin at […] using […] excitation, at 10 minutes. Percentage enzyme activity is calculated by comparison of this activity to that of a solution containing no inhibitor.

Turning to `N#Cc1nc(CCCN2CCN(c3ccccn3)CC2)cc(-c2cccc(C(F)(F)F)c2)n1` [4a′, 4-[3-(4-Pyridin-2-yl-piperazin-1-yl)-propyl]-6-(3-trifluoromethylphenyl)-pyrimidine-2-carbonitrile], the IC50 in series [1] is less than 0.01 µM. With `CCCc1nc(C#N)nc(-c2cccc(C(F)(F)F)c2)c1C` [Example 2, 5-Methyl-4-propyl-6-(3-trifluoromethylphenyl)-pyrimidine-2-carbonitrile], the IC50 in series [1] is less than 0.1 µM. On the same count and under the same terms, the result for `N#Cc1nc(CCCN2CCCCC2)cc(-c2cccc(C(F)(F)F)c2)n1` [Example 4a, 4-(3-Piperidin-1-yl-propyl)-6-(3-trifluoromethylphenyl)-pyrimidine-2-carbonitrile] reads less than 0.01 µM.

On to `CN1CCN(CCCc2cc(-c3cccc(C(F)(F)F)c3)nc(C#N)n2)CC1` [Example 4d, 4-[3-(4-Methyl-piperazin-1-yl)-propyl]-6-(3-trifluoromethylphenyl)-pyrimidine-2-carbonitrile], for which, in series [1], the IC50 is less than 0.01 µM. `N#Cc1nc(CCCNC2CCCCC2)cc(-c2cccc(C(F)(F)F)c2)n1` [Example 4e, 4-(3-Cyclohexylamino-propyl)-6-(3-trifluoromethylphenyl)-pyrimidine-2-carbonitrile]: in series [1], the IC50 was less than 0.01 µM. Still for that read-out and setting: the result for `CC(C)NCCCc1cc(-c2cccc(C(F)(F)F)c2)nc(C#N)n1` [Example 4f, 4-(3-isopropylamino-propyl)-6-(3-trifluoromethylphenyl)-pyrimidine-2-carbonitrile] reads less than 0.01 µM. On the same count and under the same terms, the result for `CN(CCCc1cc(-c2cccc(C(F)(F)F)c2)nc(C#N)n1)Cc1ccccc1` [Example 4g, 4-[3-(Benzyl-methyl-amino)-propyl]-6-(3-trifluoromethylphenyl)-pyrimidine-2-carbonitrile] reads less than 0.01 µM; that for `CC(C)CNCCCc1cc(-c2cccc(C(F)(F)F)c2)nc(C#N)n1` [Example 4h, 4-(3-Isobutylamino-propyl)-6-(3-trifluoromethylphenyl)-pyrimidine-2-carbonitrile], less than 0.1 µM. On to `N#Cc1nc(CCCNCc2ccncc2)cc(-c2cccc(C(F)(F)F)c2)n1` [Example 4i, 4-{3-[(Pyridin-4-ylmethyl)-amino]-propyl}-6-(3-trifluoromethylphenyl)-pyrimidine-2-carbonitrile], for which the IC50 in series [1] was less than 0.01 µM. On the same count and under the same terms, the value for `CCC(CC)NCCCc1cc(-c2cccc(C(F)(F)F)c2)nc(C#N)n1` [Example 4r, 4-[3-(1-Ethyl-propylamino)-propyl]-6-(3-trifluoromethylphenyl)-pyrimidine-2-carbonitrile] was less than 0.01 µM; that for `CN1CCC(N(C)CCCc2cc(-c3cccc(C(F)(F)F)c3)nc(C#N)n2)CC1` [Example 4s, 4-{3-[Methyl-(1-methyl-piperidin-4-yl)-amino]-propyl}-6-(3-trifluoromethylphenyl)-pyrimidine-2-carbonitrile] was less than 0.01 µM. Take `CN1CCCN(CCCc2cc(-c3cccc(C(F)(F)F)c3)nc(C#N)n2)CC1` [Example 4u, 4-[3-(4-Methyl-[1,4]diazepan-1-yl)-propyl]-6-(3-trifluoromethylphenyl)-pyrimidine-2-carbonitrile]: the IC50 in series [1] is less than 0.01 µM.

As a reminder, the melting point is the temperature of the solid-liquid transition. Consider `CCCc1cc(-c2cccc(C(C)C)c2)nc(C#N)n1` [Example 5a, 4-(3-Isopropyl-phenyl)-6-propyl-pyrimidine-2-carbonitrile], for which the melting point amounted to 64 °C. Compound `CCCc1cc(-c2cc(C(F)(F)F)cc(C(F)(F)F)c2)nc(C#N)n1` [Example 6a, 4-(3,5-Bis-trifluoromethyl-phenyl)-6-propyl-pyrimidine-2-carbonitrile] came in with a melting point of 112 °C. Turning to `CNC(=O)CNCCCc1cc(-c2cccc(C(F)(F)F)c2)nc(C#N)n1` [Example 8a, 4-[3-(Methylcarbamoylmethyl-amino)-propyl]-6-(3-trifluoromethylphenyl)-pyrimidine-2-carbonitrile], the IC50 in series [1] was less than 0.01 µM. `CC(=O)NCCNCCCc1cc(-c2ccc(C)c(C)c2)nc(C#N)n1` [Example 14j, 4-[3-(2-Acetylamino-ethylamino)-propyl]-6-(3,4-dimethyl-phenyl)-pyrimidine-2-carbonitrile]: the IC50 in series [1] is less than 0.01 µM. On the same count and under the same terms, the result for `Cc1ccc(-c2cc(CCCNCCN3CCNC3=O)nc(C#N)n2)cc1C` [Example 14n, 4-(3,4-Dimethyl-phenyl)-6-{3-[2-(2-oxo-imidazolidin-1-yl)-ethylamino]-propyl}-pyrimidine-2-carbonitrile] reads less than 0.01 µM.
